According to PubChem BioAssay (NCI):
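Briefly, cells in 96-well plates were exposed to five compound concentrations for 48 h, and endpoints were estimated by linear interpolation. GI50 marks 50% less growth. The concentration for full growth arrest is given as TGI.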

Tests used:
Test in all cases: DTP human tumour cell line panel, 48 h
[1] = test system: SF-268 CNS
[2] = test system: CAKI-1 renal
[3] = test system: MALME-3M melanoma
[4] = test system: SK-OV-3 ovarian
[5] = test system: OVCAR-4 ovarian
[6] = test system: KM12 colon
[7] = test system: NCI-H23 lung
[8] = test system: ACHN renal
[9] = test system: HCT-15 colon
[10] = test system: UO-31 renal
[11] = test system: SR leukemia
[12] = test system: SF-539 CNS
[13] = test system: SN12C renal
[14] = test system: CCRF-CEM leukemia
[15] = test system: NCI-H522 lung
[16] = test system: M14 melanoma
[17] = test system: TK-10 renal
[18] = test system: NCI-H460 lung
[19] = test system: MOLT-4 leukemia
[20] = test system: HL-60(TB) leukemia
[21] = test system: HCC-2998 colon
[22] = test system: SK-MEL-5 melanoma
[23] = test system: LOX IMVI melanoma
[24] = test system: HOP-62 NSCLC
[25] = test system: A498 renal
[26] = test system: OVCAR-3 ovarian
[27] = test system: A549 NSCLC

O=[N+]([O-])c1ccc(CI)cc1
GI50 [1]: 4.02 µM | TGI [1]: 15.2 µM | GI50 [2]: 1.91 µM | TGI [2]: 3.98 µM | GI50 [3]: 2.15 µM | TGI [3]: 4.63 µM | GI50 [4]: 4.53 µM | TGI [4]: 15.5 µM | GI50 [5]: 3.6 µM | TGI [5]: 18.6 µM | GI50 [6]: 3.52 µM | TGI [6]: 12 µM | GI50 [7]: 3.32 µM | TGI [7]: 12.4 µM | GI50 [8]: 1.96 µM | TGI [8]: 4.12 µM | GI50 [9]: 1.17 µM | TGI [9]: 3.76 µM | GI50 [10]: 1.79 µM | TGI [10]: 3.59 µM | GI50 [11]: 2.24 µM | TGI [11]: 10.3 µM | GI50 [12]: 2.66 µM | TGI [12]: 8.19 µM | GI50 [13]: 2 µM | TGI [13]: 5.39 µM | GI50 [14]: 0.518 µM | TGI [14]: 2.59 µM | GI50 [15]: 1.41 µM | TGI [15]: 3.02 µM | GI50 [16]: 3.38 µM | TGI [16]: 13.5 µM | GI50 [17]: 1.85 µM | TGI [17]: 3.32 µM | GI50 [18]: 3.2 µM | TGI [18]: 10.5 µM | GI50 [19]: 1.32 µM | TGI [19]: 7.21 µM | GI50 [20]: 2.24 µM | TGI [20]: 5.22 µM | GI50 [21]: 3.43 µM | TGI [21]: 11.8 µM | GI50 [22]: 1.99 µM | TGI [22]: 4.41 µM | GI50 [23]: 1.3 µM | TGI [23]: 2.9 µM | GI50 [24]: 3.38 µM | TGI [24]: 12.5 µM | GI50 [25]: 2.29 µM | TGI [25]: 9.56 µM | GI50 [26]: 2.4 µM | TGI [26]: 5.41 µM | GI50 [27]: 3.68 µM | TGI [27]: 14.5 µM
